Laboratory results published in the NIST ThermoML archive (doi:10.1021/je700672f).

Experiment: xn = mol fraction of the nth substance listed
Conditions: 101 kPa, Liquid

OCCOCCO [diethylene glycol] + O
Conditions	mass density [kg/m3]	viscosity [mPa·s]
283.15 K, x1 = 0.0255	1019.73	–
283.15 K, x1 = 0.0565	1040.15	–
283.15 K, x1 = 0.1027	1063.34	–
283.15 K, x1 = 0.1966	1091.18	–
283.15 K, x1 = 0.301	1106.34	–
283.15 K, x1 = 0.3989	1113.62	–
283.15 K, x1 = 0.5006	1117.88	–
283.15 K, x1 = 0.6011	1120.39	–
283.15 K, x1 = 0.7003	1121.98	–
283.15 K, x1 = 0.8051	1123.07	–
283.15 K, x1 = 0.892	1123.64	–
283.15 K, x1 = 1	1124.24	–
288.15 K, x1 = 0.0255	1018.61	–
288.15 K, x1 = 0.0565	1038.42	–
288.15 K, x1 = 0.1027	1060.91	–
288.15 K, x1 = 0.1966	1088.01	–
288.15 K, x1 = 0.301	1102.88	–
288.15 K, x1 = 0.3989	1110.06	–
288.15 K, x1 = 0.5006	1114.29	–
288.15 K, x1 = 0.6011	1116.8	–
288.15 K, x1 = 0.7003	1118.39	–
288.15 K, x1 = 0.8051	1119.47	–
288.15 K, x1 = 0.892	1120.05	–
288.15 K, x1 = 1	1120.65	–
293.15 K, x1 = 0.0255	1017.27	1.429
293.15 K, x1 = 0.0565	1036.53	2.223
293.15 K, x1 = 0.1027	1058.39	3.639
293.15 K, x1 = 0.1966	1084.81	7.452
293.15 K, x1 = 0.301	1099.4	12.6
293.15 K, x1 = 0.3989	1106.48	17.48
293.15 K, x1 = 0.5006	1110.68	22.22
293.15 K, x1 = 0.6011	1113.19	26
293.15 K, x1 = 0.7003	1114.79	29.46
293.15 K, x1 = 0.8051	1115.87	32.26
293.15 K, x1 = 0.892	1116.45	34.04
293.15 K, x1 = 1	1117.05	36.43
298.15 K, x1 = 0.0255	1015.72	–
298.15 K, x1 = 0.0565	1034.5	–
298.15 K, x1 = 0.1027	1055.77	–
298.15 K, x1 = 0.1966	1081.56	–
298.15 K, x1 = 0.301	1095.89	–
298.15 K, x1 = 0.3989	1102.89	–
298.15 K, x1 = 0.5006	1107.07	–
298.15 K, x1 = 0.6011	1109.59	–
298.15 K, x1 = 0.7003	1111.19	–
298.15 K, x1 = 0.8051	1112.27	–
298.15 K, x1 = 0.892	1112.86	–
298.15 K, x1 = 1	1113.47	–
303.15 K, x1 = 0.0255	1013.97	1.115
303.15 K, x1 = 0.0565	1032.33	1.674
303.15 K, x1 = 0.1027	1053.07	2.629
303.15 K, x1 = 0.1966	1078.28	5.148
303.15 K, x1 = 0.301	1092.36	8.358
303.15 K, x1 = 0.3989	1099.29	11.4
303.15 K, x1 = 0.5006	1103.45	14.15
303.15 K, x1 = 0.6011	1105.97	16.34
303.15 K, x1 = 0.7003	1107.58	18.48
303.15 K, x1 = 0.8051	1108.67	20
303.15 K, x1 = 0.892	1109.27	21.19
303.15 K, x1 = 1	1109.88	22.09
308.15 K, x1 = 0.0255	1011.83	–
308.15 K, x1 = 0.0565	1030.02	–
308.15 K, x1 = 0.1027	1050.27	–
308.15 K, x1 = 0.1966	1074.94	–
308.15 K, x1 = 0.301	1088.8	–
308.15 K, x1 = 0.3989	1095.67	–
308.15 K, x1 = 0.5006	1099.82	–
308.15 K, x1 = 0.6011	1102.36	–
308.15 K, x1 = 0.7003	1103.97	–
308.15 K, x1 = 0.8051	1105.06	–
308.15 K, x1 = 0.892	1105.68	–
308.15 K, x1 = 1	1106.29	–
313.15 K, x1 = 0.0255	1009.99	0.959
313.15 K, x1 = 0.0565	1027.57	1.298
313.15 K, x1 = 0.1027	1047.39	1.984
313.15 K, x1 = 0.1966	1071.56	3.716
313.15 K, x1 = 0.301	1085.22	5.847
313.15 K, x1 = 0.3989	1092.03	7.761
313.15 K, x1 = 0.5006	1096.18	9.506
313.15 K, x1 = 0.6011	1098.73	10.93
313.15 K, x1 = 0.7003	1100.35	12.22
313.15 K, x1 = 0.8051	1101.45	13.2
313.15 K, x1 = 0.892	1102.09	13.93
313.15 K, x1 = 1	1102.7	14.56
318.15 K, x1 = 0.0255	1007.73	–
318.15 K, x1 = 0.0565	1025.01	–
318.15 K, x1 = 0.1027	1044.41	–
318.15 K, x1 = 0.1966	1068.13	–
318.15 K, x1 = 0.301	1081.61	–
318.15 K, x1 = 0.3989	1088.37	–
318.15 K, x1 = 0.5006	1092.53	–
318.15 K, x1 = 0.6011	1095.08	–
318.15 K, x1 = 0.7003	1096.71	–
318.15 K, x1 = 0.8051	1097.83	–
318.15 K, x1 = 0.892	1098.49	–
318.15 K, x1 = 1	1099.11	–
323.15 K, x1 = 0.0255	1005.37	0.754
323.15 K, x1 = 0.0565	1022.33	1.031
323.15 K, x1 = 0.1027	1041.36	1.545
323.15 K, x1 = 0.1966	1064.65	2.783
323.15 K, x1 = 0.301	1077.97	4.231
323.15 K, x1 = 0.3989	1084.69	5.509
323.15 K, x1 = 0.5006	1088.85	6.694
323.15 K, x1 = 0.6011	1091.42	7.635
323.15 K, x1 = 0.7003	1093.07	8.477
323.15 K, x1 = 0.8051	1094.21	9.115
323.15 K, x1 = 0.892	1094.88	9.635
323.15 K, x1 = 1	1095.51	10.03
328.15 K, x1 = 0.0255	1002.86	–
328.15 K, x1 = 0.0565	1019.53	–
328.15 K, x1 = 0.1027	1038.21	–
328.15 K, x1 = 0.1966	1061.13	–
328.15 K, x1 = 0.301	1074.29	–
328.15 K, x1 = 0.3989	1080.98	–
328.15 K, x1 = 0.5006	1085.16	–
328.15 K, x1 = 0.6011	1087.74	–
328.15 K, x1 = 0.7003	1089.41	–
328.15 K, x1 = 0.8051	1090.57	–
328.15 K, x1 = 0.892	1091.26	–
328.15 K, x1 = 1	1091.91	–
333.15 K, x1 = 0.0255	1000.22	0.62
333.15 K, x1 = 0.0565	1016.62	0.849
333.15 K, x1 = 0.1027	1034.99	1.236
333.15 K, x1 = 0.1966	1057.55	2.147
333.15 K, x1 = 0.301	1070.58	3.202
333.15 K, x1 = 0.3989	1077.25	4.103
333.15 K, x1 = 0.5006	1081.43	4.917
333.15 K, x1 = 0.6011	1084.04	5.534
333.15 K, x1 = 0.7003	1085.74	6.12
333.15 K, x1 = 0.8051	1086.93	6.492
333.15 K, x1 = 0.892	1087.63	6.874
333.15 K, x1 = 1	1088.3	7.22
338.15 K, x1 = 0.0255	997.46	–
338.15 K, x1 = 0.0565	1013.61	–
338.15 K, x1 = 0.1027	1031.68	–
338.15 K, x1 = 0.1966	1053.92	–
338.15 K, x1 = 0.301	1066.84	–
338.15 K, x1 = 0.3989	1073.49	–
338.15 K, x1 = 0.5006	1077.69	–
338.15 K, x1 = 0.6011	1080.33	–
338.15 K, x1 = 0.7003	1082.06	–
338.15 K, x1 = 0.8051	1083.27	–
338.15 K, x1 = 0.892	1083.99	–
338.15 K, x1 = 1	1084.68	–
343.15 K, x1 = 0.0255	994.57	0.527
343.15 K, x1 = 0.0565	1010.51	0.71
343.15 K, x1 = 0.1027	1028.29	1.011
343.15 K, x1 = 0.1966	1050.24	1.703
343.15 K, x1 = 0.301	1063.06	2.514
343.15 K, x1 = 0.3989	1069.69	3.15
343.15 K, x1 = 0.5006	1073.93	3.731
343.15 K, x1 = 0.6011	1076.59	4.217
343.15 K, x1 = 0.7003	1078.36	4.617
343.15 K, x1 = 0.8051	1079.6	4.863
343.15 K, x1 = 0.892	1080.34	5.121
343.15 K, x1 = 1	1081.05	5.369
348.15 K, x1 = 0.0255	991.57	–
348.15 K, x1 = 0.0565	1007.27	–
348.15 K, x1 = 0.1027	1024.84	–
348.15 K, x1 = 0.1966	1046.51	–
348.15 K, x1 = 0.301	1059.24	–
348.15 K, x1 = 0.3989	1065.88	–
348.15 K, x1 = 0.5006	1070.14	–
348.15 K, x1 = 0.6011	1072.84	–
348.15 K, x1 = 0.7003	1074.63	–
348.15 K, x1 = 0.8051	1075.91	–
348.15 K, x1 = 0.892	1076.67	–
348.15 K, x1 = 1	1077.4	–
353.15 K, x1 = 0.0255	988.5	0.465
353.15 K, x1 = 0.0565	1004.07	0.606
353.15 K, x1 = 0.1027	1021.3	0.848
353.15 K, x1 = 0.1966	1042.72	1.392
353.15 K, x1 = 0.301	1055.38	2.043
353.15 K, x1 = 0.3989	1062.02	2.502
353.15 K, x1 = 0.5006	1066.32	2.942
353.15 K, x1 = 0.6011	1069.05	3.283
353.15 K, x1 = 0.7003	1070.89	3.593
353.15 K, x1 = 0.8051	1072.2	3.818
353.15 K, x1 = 0.892	1072.99	4.024
353.15 K, x1 = 1	1073.74	4.139
